Assay results: paper PMC10924156, “Design, Preclinical Evaluation, and Clinical Translation of ^68Ga-FAPI-LM3, a Heterobivalent Molecule for PET Imaging of Nasopharyngeal Carcinoma” (Journal of Nuclear Medicine, 2024)
Positions of bridges follow the written chain, without caps; N, C: chain ends. Non-standard residues stand in square brackets, D forms with d. Residues, ends and D or L forms follow the SMILES beside them. *: point of attachment. DOTA = O=C(O)CN1CCN(CC(=O)O)CCN(CC(=O)*)CCN(CC(=O)O)CC1; dPhe(4-NHCONH2) = NC(=O)Nc1ccc(C[C@@H](N)C(=O)O)cc1; Phe(4-Cl) = N[C@@H](Cc1ccc(Cl)cc1)C(=O)O

Columns and labels:
[1] = Ex vivo biodistribution study; settings: BALB/c nude, mouse, tumor (HT-1080-FAP plus HT-1080-SSTR2 xenograft), 1.48 MBq, total radioactivity
Protocol: (§1) Tumor-bearing mice (3/group) were intravenously injected with approximately 7.4 MBq of ^68Ga-FAPI-LM3, ^68Ga-FAPI-46, or ^68Ga-DOTA-LM3. Subsequent static PET scans were obtained at intervals of 0.5, 1, 2, and 4 h after injection using an Inveon small-animal PET scanner (Siemens). In the blocking experiment, approximately 60 nmol of the unlabeled precursor (FAPI-46, DOTA-LM3, or FAPI-46 plus DOTA-LM3) were simultaneously injected with ^68Ga-FAPI-LM3. The PET images were reconstructed iteratively using 3-dimensional OpMAP 256 (PET reconstruction protocol [.pPetRcn]; Siemens Healthineers AG) and converted to percentage injected dose per gram of tissue (%ID/g) by delineating the regions of interest. For the biodistribution studies, approximately 1.48 MBq of ^68Ga-FAPI-LM3, ^68Ga-FAPI-46, ^68Ga-DOTA-LM3, or ^68Ga-FAPI-LM3 with unlabeled precursor were injected into tumor-bearing mice (3/group), and different groups of mice were euthanized at the scheduled time points after injection.

[2] = parameters: method as in 2 sources, ref 21 = [21]; PMID 30072500; doi:10.2967/jnumed.118.215913; 21. Giesel FL Kratochwil C Lindner T . 68 Ga-FAPI PET/CT: biodistribution and preliminary dosimetry estimate of 2 DOTA-containing FAP-targeting agents in patients with various cancers . J Nucl Med. 20 ||| ref 15 = [15]; PMID 33579804; doi:10.2967/jnumed.120.253096; 15. Zhu W Cheng Y Jia R . A prospective, randomized, double-blind study to evaluate the safety, biodistribution, and dosimetry of 68 Ga-NODAGA-LM3 and 68 Ga-DOTA-LM3 in patients with well-differentiat; settings: in vivo; cited from earlier work
Small-animal PET imaging = settings: BALB/c nude, mouse, tumor (HT-1080-FAP plus HT-1080-SSTR2 xenograft), iv, 7.4 MBq, total radioactivity, tumor uptake (PET), i.v. approx 7.4 MBq, 3 mice/group
Protocol: as §1

tissue uptake at 1 h [1]: 7.88 ± 1.1 %ID/g | tissue uptake at 1 h (Small-animal PET imaging; 1 h after injection): 5.93 ± 0.5 %ID/g | tissue uptake at 4 h (Small-animal PET imaging; 4 h after injection): 4.46 ± 0.57 %ID/g
Structure (SMILES): C[C@@H](O)[C@@H]1NC(=O)[C@H](CCCCN)NC(=O)[C@@H](Cc2ccc(NC(N)=O)cc2)NC(=O)[C@H](Cc2ccc(O)cc2)NC(=O)[C@H](NC(=O)[C@H](Cc2ccc(Cl)cc2)NC(=O)CN2CCN(CC(=O)O)CCN(CC(=O)O)CCN(CC(=O)O)CC2)CSSC[C@@H](C(=O)N[C@H](Cc2ccc(O)cc2)C(N)=O)NC1=O [^68Ga-DOTA-LM3, metal not drawn, reference compound] ({DOTA}-[Phe(4-Cl)][dC]Y[dPhe(4-NHCONH2)]KTC[dY]-NH2; disulfide 2-7)
effective dose [2]: 2.50 × 10^−2 mSv/MBq
